Test results published in paper PMC5750218, “Protein-inspired antibiotics active against vancomycin- and daptomycin-resistant bacteria” (Nature Communications, 2018).
≈ marks a conversion by molar mass, not a printed value.

What was measured:
[1] = Critical micelle concentration assay; assay type: physicochemical; settings: 0.2 M NaCl, DPH
Method: CMCs were determined as previously described[46] with a higher throughput modification. Briefly, a cascade dilution of each antibiotic was performed in a low binding polypropylene V-bottom shaped 96-well plates in the presence of 0.2 M NaCl solution across 12 concentrations ranging from 1000 to 0.1 μM, except the control melittin (100 to 0.01 μM). An identical cascade dilution was performed for the neutral detergent Triton X-100 and the anionic detergent sodium dodecyl sulphate (SDS) starting from 0.1% down to 0.00001% (vol:vol for Triton X-100 and wt:vol for SDS). An aliquot of […] (DPH) in DMSO was added in each well to yield the final DPH concentration of 5 μM. The reaction mixtures were mixed for 30 s and transferred in horizontal triplicate (25 μL per well) into a black falcon 384-well plate. The 384-well plate was then sealed, wrapped up in aluminium foil and incubated for 30 min at room temperature. The fluorescence intensity was monitored in real time using a BMG Labtech PolarStar Omega multimode reader fitted with 360-10 and 430-10 excitation and emission filters respectively, at an excitation wavelength of 360 nm and an emission wavelength of 430 nm.

[2] = test system: cell-free particulate fraction of Bacillus megaterium KM (ATCC 13632); test: Cell-free peptidoglycan inhibition assay; assay type: biochemical; settings: cell free radiolabelled synthesis assay
Method: The cell-free particulate fraction of Bacillus megaterium KM (ATCC®13632™) was used to catalyse the polymerisation of peptidoglycan from UPD-linked precursors in vitro following literature procedures. B. megaterium was grown in the medium containing 1% (w/v) tryptone (Difco-Bacto), 0.5% (w/v) yeast extract (Difco-Bacto), 0.25% (w/v) K2HPO4 and 0.5% (w/v) glucose with pH 7.2. Bacteria were harvested when the density had reached to 0.4 mg dry weight mL^−1 and washed in the buffer 0.05 M Tris-HCl (pH 7.8) containing 10 mM MgCl2 by centrifugation at 6000 × g for 10 min at 4 °C. All subsequent manipulations were carried out on ice. The bacteria were resuspended in the same buffer at a density of 50 mg dry weight mL^−1, and then subjected to three freeze/thaw cycles. Bacteria were then homogenised by using a glass homogeniser at 4 °C (2 × 10 min). The broken cell suspension was centrifuged at 6000 × g for 10 min at 4 °C. […] Integrated density value (IDV) of each band on silica gel was analysed using AlphaEase FC software (AlphaImager 2200). The change of peptidoglycan or Lipid II were calculated as percent from the IDV values of the control (without any antibiotic or compound).

MRSA = MRSA in 50% human serum / 50% MHB
Method: The compounds, along with standard antibiotics were serially diluted twofold across the wells of 96-well non-binding surface (NBS) polystyrene plates (Corning 3641). […] Standards ranged from 64 to 0.03 µg mL^−1 and compounds from 8 to 0.003 µg mL^−1 with final assay volumes of 100 µL per well. Gram-positive bacteria were cultured in Mueller Hinton broth (MHB) (Bactolaboratories, Cat. no. 211443) at 37 °C overnight. A sample of each culture was then diluted 40-fold in fresh MHB and incubated at 37 °C for 2–3 h. […] All the plates were covered and incubated at 37 °C for 24 h. MICs were the lowest concentration showing no visible growth.
The compounds, along with standard antibiotics, tested in BMD-MIC assay as above, in the presence of a mixture of 50% human serum (Sigma-Aldrich) and 50% MHB.

HEK293 cells = test: Cytotoxicity MTT assay; assay type: cell-based, human
How it was run: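 HepG2 and HEK293 cells, 1.5 × 10^4 per well in DMEM with 1% FBS, were allowed to attach for 24 h, then exposed 24 h at 37 °C to compounds at 100 µM to 0.046 µM in threefold steps. MTT (0.4 mg mL^−1) was added for 2 h, and formazan in DMSO was read at 570 nm. Viability is given as percent of control, corrected for a positive control.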

| SMILES | critical micelle concentration (CMC) [1] | Peptidoglycan formation, 14C-GlcNAc incorporation [2] | MIC +50% HS (MRSA) [µg/mL] | CC50 (HEK293 cells) [µM] |
| --- | --- | --- | --- | --- |
| CCCCCCCCCCCCCC(=O)N[C@@H](CCCCN)C(=O)N[C@@H](CCCCN)C(=O)N[C@@H](CCCCN)C(=O)N[C@@H](CCCCNC(=O)[C@H]1NC(=O)[C@H]2NC(=O)[C@H](NC(=O)[C@@H]3NC(=O)[C@H](CC(N)=O)NC(=O)[C@H](NC(=O)[C@@H](CC(C)C)NC)[C@H](O)c4ccc(c(Cl)c4)Oc4cc3cc(c4O[C@@H]3O[C@H](CO)[C@@H](O)[C@H](O)[C@H]3O[C@H]3C[C@](C)(N)[C@H](O)[C@H](C)O3)Oc3ccc(cc3Cl)[C@H]2O)c2ccc(O)c(c2)-c2c(O)cc(O)cc21)C(=O)O [Compound 17, nC13CO-KKK-K(Vancomycin)-OH] | exceed 100 µM | inhibited peptidoglycan formation |  |  |
| CN[C@H]1C(=O)N[C@@H]2Cc3ccc(cc3)Oc3cc4cc(c3O[C@@H]3O[C@H](C(=O)O)[C@@H](O)[C@H](O)[C@H]3NC(=O)CCCCCCCCC(C)C)Oc3ccc(cc3Cl)[C@@H](O)[C@@H]3NC(=O)[C@H](NC(=O)[C@@H]4NC(=O)[C@@H](NC2=O)c2cc(cc(O)c2Cl)Oc2cc1ccc2O)c1ccc(O)c(c1)-c1c(O[C@H]2O[C@H](CO)[C@@H](O)[C@H](O)[C@@H]2O)cc(O)cc1[C@@H](C(=O)NCCCN(C)C)NC3=O [Compound 3, Dalbavancin] |  |  | 8 (≈ 4.4 µM) | 73 |
